In the NIST ThermoML archive (doi:10.1021/je060271a):
Where “and” joins values, the source holds several entries; their conditions need not be identical. Equal values may be shown once.

Conditions: 343.15 K, Liquid, Vibrating tube method

CCCCCC(=O)OCC(COC(=O)CCCCC)(COC(=O)CCCCC)COC(=O)CCCCC [pentaerythritol tetrahexanoate]
Conditions | mass density
242.7 kPa | 957.2 kg/m3
242.9 kPa | 957.3 kg/m3
243.1 kPa | 957.3 kg/m3
243.2 kPa | 957.3 kg/m3 and 957.2 kg/m3
243.6 kPa | 957.2 kg/m3
243.9 kPa | 957.3 kg/m3 and 957.1 kg/m3
244.3 kPa | 957.3 kg/m3
244.5 kPa | 957.2 kg/m3 and 957.3 kg/m3
244.8 kPa | 957.3 kg/m3
245 kPa | 957.2 kg/m3 and 957.4 kg/m3
245.3 kPa | 957.3 kg/m3 and 957.2 kg/m3
245.5 kPa | 957.2 kg/m3
245.7 kPa | 957.2 kg/m3
245.9 kPa | 957.3 kg/m3
246.2 kPa | 957.4 kg/m3
246.4 kPa | 957.3 kg/m3
246.6 kPa | 957.3 kg/m3
249 kPa | 957.2 kg/m3
249.5 kPa | 957.2 kg/m3
249.9 kPa | 957.4 kg/m3
250 kPa | 957.2 kg/m3
250.2 kPa | 957.1 kg/m3
251.6 kPa | 957.3 kg/m3
251.8 kPa | 957.3 kg/m3 and 957.2 kg/m3
251.9 kPa | 957.3 kg/m3
252.3 kPa | 957.3 kg/m3 and 957.2 kg/m3
252.6 kPa | 957.1 kg/m3
252.8 kPa | 957.2 kg/m3
253.2 kPa | 957.2 kg/m3
253.3 kPa | 957.3 kg/m3 and 957.2 kg/m3 and 957.4 kg/m3
253.7 kPa | 957.2 kg/m3
254 kPa | 957.2 kg/m3
254.4 kPa | 957.2 kg/m3
254.9 kPa | 957.3 kg/m3
255.1 kPa | 957.2 kg/m3 and 957.3 kg/m3
255.4 kPa | 957.3 kg/m3
255.6 kPa | 957.4 kg/m3
256.3 kPa | 957.3 kg/m3
256.5 kPa | 957.1 kg/m3
256.6 kPa | 957.2 kg/m3
256.8 kPa | 957.2 kg/m3
257 kPa | 957.2 kg/m3
257.3 kPa | 957.3 kg/m3
257.5 kPa | 957.2 kg/m3
257.7 kPa | 957.3 kg/m3
257.9 kPa | 957.3 kg/m3
258.2 kPa | 957.2 kg/m3
259.2 kPa | 957.2 kg/m3
259.6 kPa | 957.4 kg/m3
259.9 kPa | 957.3 kg/m3
260.1 kPa | 957.3 kg/m3
260.4 kPa | 957.3 kg/m3
260.6 kPa | 957.3 kg/m3
261 kPa | 957.3 kg/m3 and 957.2 kg/m3
261.3 kPa | 957.2 kg/m3
261.5 kPa | 957.2 kg/m3
261.7 kPa | 957.2 kg/m3
261.8 kPa | 957.3 kg/m3
262.2 kPa | 957.3 kg/m3
262.5 kPa | 957.4 kg/m3
262.9 kPa | 957.4 kg/m3 and 957.2 kg/m3
263 kPa | 957.2 kg/m3
263.4 kPa | 957.1 kg/m3 and 957.4 kg/m3 and 957.3 kg/m3
263.7 kPa | 957.4 kg/m3 and 957.3 kg/m3
266.9 kPa | 957.4 kg/m3
270.7 kPa | 957.2 kg/m3
271.2 kPa | 957.3 kg/m3
273.5 kPa | 957.3 kg/m3
273.6 kPa | 957.4 kg/m3
274 kPa | 957.3 kg/m3
274.3 kPa | 957.3 kg/m3
275.2 kPa | 957.3 kg/m3
275.6 kPa | 957.4 kg/m3
275.7 kPa | 957.4 kg/m3
275.9 kPa | 957.2 kg/m3
276.1 kPa | 957.4 kg/m3
276.4 kPa | 957.2 kg/m3
276.6 kPa | 957.4 kg/m3
276.9 kPa | 957.3 kg/m3
277.3 kPa | 957.3 kg/m3
277.6 kPa | 957.3 kg/m3
278 kPa | 957.3 kg/m3
278.2 kPa | 957.2 kg/m3
278.3 kPa | 957.2 kg/m3
278.7 kPa | 957.3 kg/m3
279 kPa | 957.3 kg/m3
279.2 kPa | 957.3 kg/m3
279.4 kPa | 957.2 kg/m3
279.6 kPa | 957.2 kg/m3
285.3 kPa | 957.4 kg/m3
285.6 kPa | 957.4 kg/m3 and 957.2 kg/m3
286.1 kPa | 957.3 kg/m3
286.3 kPa | 957.3 kg/m3
286.5 kPa | 957.3 kg/m3
286.7 kPa | 957.3 kg/m3
287 kPa | 957.4 kg/m3
287.2 kPa | 957.1 kg/m3
287.4 kPa | 957.3 kg/m3
287.5 kPa | 957.2 kg/m3
287.9 kPa | 957.3 kg/m3
288.2 kPa | 957.2 kg/m3
288.6 kPa | 957.3 kg/m3
288.7 kPa | 957.2 kg/m3
288.9 kPa | 957.3 kg/m3
289.1 kPa | 957.3 kg/m3
289.4 kPa | 957.2 kg/m3
289.8 kPa | 957.2 kg/m3 and 957.3 kg/m3
291.2 kPa | 957.3 kg/m3
291.4 kPa | 957.3 kg/m3
291.5 kPa | 957.4 kg/m3 and 957.2 kg/m3
291.9 kPa | 957.4 kg/m3
292.2 kPa | 957.3 kg/m3
292.4 kPa | 957.3 kg/m3 and 957.4 kg/m3
292.7 kPa | 957.4 kg/m3
293.1 kPa | 957.3 kg/m3
293.4 kPa | 957.3 kg/m3
293.6 kPa | 957.3 kg/m3
294.6 kPa | 957.3 kg/m3
294.7 kPa | 957.3 kg/m3
296.4 kPa | 957.4 kg/m3 and 957.3 kg/m3
296.6 kPa | 957.3 kg/m3
297.1 kPa | 957.3 kg/m3
297.3 kPa | 957.3 kg/m3
297.6 kPa | 957.4 kg/m3
298 kPa | 957.4 kg/m3 and 957.3 kg/m3 and 957.2 kg/m3
298.5 kPa | 957.3 kg/m3
298.8 kPa | 957.4 kg/m3
299 kPa | 957.2 kg/m3
299.9 kPa | 957.3 kg/m3
305.4 kPa | 957.4 kg/m3
305.8 kPa | 957.2 kg/m3
306 kPa | 957.3 kg/m3
306.3 kPa | 957.4 kg/m3
306.8 kPa | 957.4 kg/m3 and 957.3 kg/m3
307.5 kPa | 957.3 kg/m3
307.9 kPa | 957.3 kg/m3
308.2 kPa | 957.3 kg/m3
308.4 kPa | 957.2 kg/m3
308.7 kPa | 957.5 kg/m3 and 957.3 kg/m3
309.1 kPa | 957.3 kg/m3
309.3 kPa | 957.3 kg/m3
309.4 kPa | 957.4 kg/m3
309.8 kPa | 957.1 kg/m3
310.6 kPa | 957.3 kg/m3
311.2 kPa | 957.3 kg/m3
